Where a SMILES comes first, the peptide text is derived from it. [ ]: non-standard residue; d: D form.
What was measured:
[1] = tested on: clinical strains of Acinetobacter johnsonii; format: cell-based; conditions: Acinetobacter johnsonii clinical strain 1; microdilution, Muller Hinton broth-cation adjusted, 0.02% BSA, 0.2% acetic acid
Method: Minimum inhibition concentrations (MICs) were determined against Escherichia coli (ATCC 25922), Staphylococcus aureus (ATCC 25923), Klebsiella pneumoniae (ATCC 10031) and Pseudomonas aeruginosa (ATCC 27853). Also clinical strains of E. coli, K. pneumoniae, E. cloacae, P. aeruginosa, Serratia marcescens, Proteus mirabilis, S. pneumoniae, Acinetobacter baumannii, A. johnsonii and S. aureus were used for MICs assays. Additionally, clinical strains of yeast including Candida albicans, C. glabrata, C. parapsilosis and C. quillermondiae were used. The susceptibility of these microorganisms to Chain peptides were determined using micro broth dilution assay. Colonies of the respective microorganism from Muller Hinton (MH) agar plates incubated overnight were suspended in MH broth media and final concentration of microorganism was adjusted to 5.0×10^5 cfu/ml. An aliquot of 10 μl of each Chain peptide, or gentamicin, tetracycline as reference antibiotics were added in differing concentrations along with 90 μl of bacterial suspension to 96 well polypropylene plates and incubated at 37° C. for 20 to 24 hours. Concentrations of Chain peptides and reference antibiotics ranged from 0.125 to 128 μg/ml and the MICs were recorded as the lowest concentration with no visual growth of bacteria. Similarly, antifungal MICs were tested in Potato dextrose broth.
Clinical strains of yeasts including Candida albicans, C. glabrata, C. parapsilosis and C. quillermondiae were also tested with the 12 Chain peptides. The minimum inhibitory concentration (MICs) varied between these peptides and are presented in Tables 4a, 4b, 4c and 5a, 5b, 5c. Peptides Chain 105, 201 and 308 are broad spectrum antimicrobials with MICs between 0.5-32 μg/ml against all the bacteria and yeasts tested, except Serratia marcescens and Proteus mirabilis, against which the MICs were between 64-128 μg/ml. Peptide Chain 306 has narrow spectrum activity against E.coli at 1 μg/ml and for the rest of the bacterial strains at >32 μg/ml (FIG. 10).

[2] = tested on: clinical strains of Klebsiella pneumoniae; test: MIC, clinical strains of K. pneumoniae; format: cell-based; parameters: unit: μg/ml; conditions: microdilution, Muller Hinton broth-cation adjusted, 0.02% BSA, 0.2% acetic acid
How it was run: (§1)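 By broth microdilution, Chain peptides from 0.125 to 128 μg/ml were tested against clinical strains adjusted to 5.0×10^5 cfu/ml, with bacteria in MH broth and yeasts in Potato dextrose broth. After 20–24 h at 37 °C, the lowest peptide concentration without visible growth was scored as MIC.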

[3] = tested on: clinical strains of Acinetobacter baumannii; test: MIC, clinical strains of Acinetobacter baumannii; format: cell-based; conditions: microdilution, Muller Hinton broth-cation adjusted, 0.02% BSA, 0.2% acetic acid
How it was run: as §1

[4] = tested on: clinical strains of C. glabrata; test: MIC, clinical yeast strains, C. glabrata; format: cell-based, Candida glabrata; parameters: unit: μg/ml
How it was run: as §1

[5] = tested on: clinical strains of Enterobacter cloacae; test: MIC, clinical strains of Enterobacter cloacae; format: cell-based; parameters: unit: μg/ml; conditions: microdilution, Muller Hinton broth-cation adjusted, 0.02% BSA, 0.2% acetic acid
How it was run: as §1

[6] = tested on: clinical strains of C. quillermondiae; test: MIC, clinical yeast strains, C. quillermondiae; format: cell-based; conditions: C. quillermondiae clinical yeast strain 1
How it was run: as §1

[7] = tested on: clinical strains of Proteus mirabilis; test: MIC, clinical strains of Proteus mirabilis; format: cell-based; parameters: unit: µg/mL; conditions: microdilution, Muller Hinton broth-cation adjusted, 0.02% BSA, 0.2% acetic acid
How it was run: as §1

[8] = tested on: clinical strains of C. parapsilosis; test: MIC, clinical yeast strains, C. parapsilosis; format: cell-based, Candida parapsilosis; parameters: unit: μg/ml
How it was run: as §1

[9] = tested on: clinical strains of Serratia marcescens; test: MIC, clinical strains of Serratia marcescens; format: cell-based; parameters: unit: µg/mL; conditions: microdilution, Muller Hinton broth-cation adjusted, 0.02% BSA, 0.2% acetic acid
How it was run: as §1

[10] = tested on: clinical strains of Escherichia coli; test: MIC, clinical strains of E. coli; format: cell-based; parameters: unit: μg/ml; conditions: microdilution, Muller Hinton broth-cation adjusted, 0.02% BSA, 0.2% acetic acid
How it was run: as §1

[11] = tested on: clinical strains of Staphylococcus aureus; test: MIC, clinical strains of S. aureus; format: cell-based; parameters: unit: μg/ml; conditions: microdilution, Muller Hinton broth-cation adjusted, 0.02% BSA, 0.2% acetic acid
How it was run: as §1

[12] = tested on: clinical strains of Pseudomonas aeruginosa; test: MIC, clinical strains of P. aeruginosa; format: cell-based; parameters: unit: μg/ml; conditions: microdilution, Muller Hinton broth-cation adjusted, 0.02% BSA, 0.2% acetic acid
How it was run: as §1

[13] = tested on: clinical strains of Streptococcus pneumoniae; test: MIC, clinical strains of Streptococcus pneumoniae; format: cell-based; parameters: unit: µg/mL; conditions: microdilution, Muller Hinton broth-cation adjusted, 0.02% BSA, 0.2% acetic acid
How it was run: as §1

[14] = tested on: clinical strains of Candida albicans; test: MIC, clinical yeast strains, Candida albicans; format: cell-based; parameters: unit: μg/ml
How it was run: as §1

Question: `CC(C)C[C@@H](NC(=O)[C@H](N)CCCNC(=N)N)C(=O)N[C@H](CCCCN)C(=O)N[C@H](CCCNC(=N)N)C(=O)N[C@H](Cc1c[nH]c2ccccc12)C(=O)N[C@H](CCCNC(=N)N)C(=O)N[C@H](CC(C)C)C(=O)N[C@H](Cc1ccccc1)C(=O)N[C@H](CCCNC(=N)N)C(=O)N[C@H](CCCCN)C(=O)N[C@H](CCCNC(=N)N)C(=O)O` [Chain306D] (H-[dR][dL][dK][dR][dW][dR][dL][dF][dR][dK][dR]-OH) was tested. Which Minimum inhibitory concentration [1] did it give?
Answer: 16

Question: What about the Minimum inhibitory concentration ([2]; Klebsiella pneumoniae clinical strain 1) of the same compound?
Answer: 128

Question: And the Minimum inhibitory concentration ([2]; Klebsiella pneumoniae clinical strain 2)?
Answer: >128

Question: What about the Minimum inhibitory concentration ([2]; Klebsiella pneumoniae clinical strain 3) of the same compound?
Answer: >128

Question: And the Minimum inhibitory concentration ([2]; Klebsiella pneumoniae clinical strain 4)?
Answer: 64

Question: What about the Minimum inhibitory concentration ([2]; Klebsiella pneumoniae clinical strain 5) of the same compound?
Answer: 64

Question: And the Minimum inhibitory concentration ([3]; Acinetobacter baumannii clinical strain 1)?
Answer: 16

Question: And the Minimum inhibitory concentration ([3]; Acinetobacter baumannii clinical strain 2)?
Answer: 32

Question: And the Minimum inhibitory concentration ([3]; Acinetobacter baumannii clinical strain 3)?
Answer: 16

Question: And the Minimum inhibitory concentration ([3]; Acinetobacter baumannii clinical strain 4)?
Answer: 16

Question: And the Minimum inhibitory concentration ([3]; Acinetobacter baumannii clinical strain 5)?
Answer: 8

Question: And the Minimum inhibitory concentration ([4]; C. glabrata clinical yeast strain 1)?
Answer: 8

Question: What about the Minimum inhibitory concentration ([4]; C. glabrata clinical yeast strain 2) of the same compound?
Answer: 8

Question: What about the Minimum inhibitory concentration ([4]; C. glabrata clinical yeast strain 3) of the same compound?
Answer: 16

Question: And the Minimum inhibitory concentration ([4]; C. glabrata clinical yeast strain 4)?
Answer: 32

Question: What about the Minimum inhibitory concentration ([5]; Enterobacter cloacae clinical strain 1) of the same compound?
Answer: 64

Question: What about the Minimum inhibitory concentration ([5]; Enterobacter cloacae clinical strain 2) of the same compound?
Answer: 64

Question: What about the Minimum inhibitory concentration ([5]; Enterobacter cloacae clinical strain 3) of the same compound?
Answer: 32

Question: And the Minimum inhibitory concentration ([5]; Enterobacter cloacae clinical strain 4)?
Answer: 16

Question: And the Minimum inhibitory concentration ([5]; Enterobacter cloacae clinical strain 5)?
Answer: 16

Question: What about the Minimum inhibitory concentration [6] of the same compound?
Answer: 4

Question: What about the Minimum inhibitory concentration ([7]; Proteus mirabilis clinical strain 1) of the same compound?
Answer: >128

Question: What about the Minimum inhibitory concentration ([7]; Proteus mirabilis clinical strain 2) of the same compound?
Answer: >128

Question: And the Minimum inhibitory concentration ([7]; Proteus mirabilis clinical strain 3)?
Answer: >128

Question: What about the Minimum inhibitory concentration ([7]; Proteus mirabilis clinical strain 4) of the same compound?
Answer: >128

Question: What about the Minimum inhibitory concentration ([7]; Proteus mirabilis clinical strain 5) of the same compound?
Answer: >128

Question: And the Minimum inhibitory concentration ([8]; C. parapsilosis clinical yeast strain 1)?
Answer: 8

Question: And the Minimum inhibitory concentration ([8]; C. parapsilosis clinical yeast strain 2)?
Answer: 16

Question: And the Minimum inhibitory concentration ([8]; C. parapsilosis clinical yeast strain 3)?
Answer: 16

Question: And the Minimum inhibitory concentration ([8]; C. parapsilosis clinical yeast strain 4)?
Answer: 4

Question: And the Minimum inhibitory concentration ([9]; Serratia marcescens clinical strain 1)?
Answer: >128

Question: What about the Minimum inhibitory concentration ([9]; Serratia marcescens clinical strain 2) of the same compound?
Answer: >128

Question: And the Minimum inhibitory concentration ([9]; Serratia marcescens clinical strain 3)?
Answer: >128

Question: What about the Minimum inhibitory concentration ([9]; Serratia marcescens clinical strain 4) of the same compound?
Answer: >128

Question: What about the Minimum inhibitory concentration ([9]; Serratia marcescens clinical strain 5) of the same compound?
Answer: >128

Question: What about the Minimum inhibitory concentration ([10]; Escherichia coli clinical strain 1) of the same compound?
Answer: 1

Question: And the Minimum inhibitory concentration ([10]; Escherichia coli clinical strain 2)?
Answer: 2

Question: What about the Minimum inhibitory concentration ([10]; Escherichia coli clinical strain 3) of the same compound?
Answer: 2

Question: What about the Minimum inhibitory concentration ([10]; Escherichia coli clinical strain 4) of the same compound?
Answer: 2

Question: And the Minimum inhibitory concentration ([10]; Escherichia coli clinical strain 5)?
Answer: 2

Question: What about the Minimum inhibitory concentration ([11]; Staphylococcus aureus clinical strain 1) of the same compound?
Answer: 16

Question: What about the Minimum inhibitory concentration ([11]; Staphylococcus aureus clinical strain 2) of the same compound?
Answer: 32

Question: What about the Minimum inhibitory concentration ([11]; Staphylococcus aureus clinical strain 3) of the same compound?
Answer: 32

Question: What about the Minimum inhibitory concentration ([11]; Staphylococcus aureus clinical strain 4) of the same compound?
Answer: 16

Question: And the Minimum inhibitory concentration ([11]; Staphylococcus aureus clinical strain 5)?
Answer: 8

Question: And the Minimum inhibitory concentration ([12]; Pseudomonas aeruginosa clinical strain 1)?
Answer: 128

Question: What about the Minimum inhibitory concentration ([12]; Pseudomonas aeruginosa clinical strain 2) of the same compound?
Answer: >128

Question: What about the Minimum inhibitory concentration ([12]; Pseudomonas aeruginosa clinical strain 3) of the same compound?
Answer: 128

Question: And the Minimum inhibitory concentration ([12]; Pseudomonas aeruginosa clinical strain 4)?
Answer: >128

Question: And the Minimum inhibitory concentration ([12]; Pseudomonas aeruginosa clinical strain 5)?
Answer: 128

Question: And the Minimum inhibitory concentration ([13]; Streptococcus pneumoniae clinical strain 1)?
Answer: 64

Question: And the Minimum inhibitory concentration ([13]; Streptococcus pneumoniae clinical strain 2)?
Answer: 64

Question: And the Minimum inhibitory concentration ([13]; Streptococcus pneumoniae clinical strain 3)?
Answer: 64

Question: What about the Minimum inhibitory concentration ([13]; Streptococcus pneumoniae clinical strain 4) of the same compound?
Answer: 128

Question: And the Minimum inhibitory concentration ([13]; Streptococcus pneumoniae clinical strain 5)?
Answer: 64

Question: What about the Minimum inhibitory concentration ([14]; Candida albicans clinical yeast strain 1) of the same compound?
Answer: 16

Question: And the Minimum inhibitory concentration ([14]; Candida albicans clinical yeast strain 2)?
Answer: 8

Question: And the Minimum inhibitory concentration ([14]; Candida albicans clinical yeast strain 3)?
Answer: 8

Question: And the Minimum inhibitory concentration ([14]; Candida albicans clinical yeast strain 4)?
Answer: 16

Question: What about the Minimum inhibitory concentration ([14]; Candida albicans clinical yeast strain 5) of the same compound?
Answer: 16

Reference: US11096985B2, “Antimicrobial peptides, their variants and uses” (priority 2015, dated 2021)
